Test results published in paper PMC5218480 (PLoS ONE, 2017).

Tested on: MV-4-11 cells
Assay: Gene expression microarray analysis (Affymetrix PrimeView) and GSEA
Type: cell-based, human
Design: RFU PODN (11730768_x_at) / Fold change /veh PODN (11730768_x_at) / RFU LINC00158 (11744669_a_at) / Fold change /veh LINC00158 (11744669_a_at) / RFU DUSP10 (11751237_a_at) / Fold change /veh DUSP10 (11751237_a_at) / RFU ID3 (11757404_x_at) / Fold change /veh ID3 (11757404_x_at) / RFU PLEKHG5 (11737974_s_at) / Fold change /veh PLEKHG5 (11737974_s_at) / RFU LRRC4B (11730491_at) / Fold change /veh LRRC4B (11730491_at) / RFU GIMAP4 (11747438_a_at) / Fold change /veh GIMAP4 (11747438_a_at) / RFU KRT8 (11758183_x_at) / Fold change /veh KRT8 (11758183_x_at) / RFU CNN1 (11734310_a_at) / Fold change /veh CNN1 (11734310_a_at) / RFU VPS37D (11726825_at) / Fold change /veh VPS37D (11726825_at) / RFU C10orf10 (11716522_x_at) / Fold change /veh C10orf10 (11716522_x_at) / RFU KIR2DL2 /// KIR2DL4 /// KIR2DL5A /// KIR2DL5B /// KIR2DS1 /// KIR2DS2 /// KIR2DS3 /// KIR2DS4 /// KIR3DL3 /// KIR3DL3 /// KIR3DS1 (11738374_at) / Fold change /veh KIR2DL2 /// KIR2DL4 /// KIR2DL5A /// KIR2DL5B /// KIR2DS1 /// KIR2DS2 /// KIR2DS3 /// KIR2DS4 /// KIR3DL3 /// KIR3DL3 /// KIR3DS1 (11738374_at) / RFU C1QL1 (11718748_at) / Fold change /veh C1QL1 (11718748_at) / RFU TMPRSS4 (11747572_a_at) / Fold change /veh TMPRSS4 (11747572_a_at) / RFU HAMP (11756126_x_at) / Fold change /veh HAMP (11756126_x_at) / RFU RNFT2 (11725882_a_at) / Fold change /veh RNFT2 (11725882_a_at) / RFU NR4A2 (11747474_a_at) / Fold change /veh NR4A2 (11747474_a_at) / RFU ABCC12 (11746883_a_at) / Fold change /veh ABCC12 (11746883_a_at) / RFU TMEM136 (11760407_x_at) / Fold change /veh TMEM136 (11760407_x_at) / RFU CLDN22 /// WWC2 (11732394_at) / Fold change /veh CLDN22 /// WWC2 (11732394_at) / RFU HLA-DPB1 (11760878_x_at) / Fold change /veh HLA-DPB1 (11760878_x_at) / RFU SPINT1 (11716480_a_at) / Fold change /veh SPINT1 (11716480_a_at) / RFU GAP43 (11754022_s_at) / Fold change /veh GAP43 (11754022_s_at) / RFU A4GNT (11735810_at) / Fold change /veh A4GNT (11735810_at) / RFU PRB3 (11715151_x_at) / Fold change /veh PRB3 (11715151_x_at) / RFU TUBB4B (11761932_at) / Fold change /veh TUBB4B (11761932_at) / RFU CAPN14 (11732068_a_at) / Fold change /veh CAPN14 (11732068_a_at) / RFU TMCC2 (11721928_a_at) / Fold change /veh TMCC2 (11721928_a_at) / RFU IRGQ (11745062_a_at) / Fold change /veh IRGQ (11745062_a_at) / RFU FAM174B (11720279_a_at) / Fold change /veh FAM174B (11720279_a_at) / RFU TMPRSS4 (11748680_a_at) / Fold change /veh TMPRSS4 (11748680_a_at) / RFU FAM212B (11763350_a_at) / Fold change /veh FAM212B (11763350_a_at) / RFU PLEKHG5 (11743358_a_at) / Fold change /veh PLEKHG5 (11743358_a_at) / RFU ZSCAN30 (11745921_a_at) / Fold change /veh ZSCAN30 (11745921_a_at) / RFU CMKLR1 (11741424_a_at) / Fold change /veh CMKLR1 (11741424_a_at) / RFU LOC101060620 /// MAPK8IP1 (11723275_at) / Fold change /veh LOC101060620 /// MAPK8IP1 (11723275_at) / RFU SPTSSB (11747773_x_at) / Fold change /veh SPTSSB (11747773_x_at) / RFU PRSS12 (11739890_at) / Fold change /veh PRSS12 (11739890_at) / RFU BIN1 (11741810_x_at) / Fold change /veh BIN1 (11741810_x_at) / RFU WNT11 (11732464_a_at) / Fold change /veh WNT11 (11732464_a_at) / RFU C10orf10 (11716521_a_at) / Fold change /veh C10orf10 (11716521_a_at) / RFU C5orf56 (11738089_at) / Fold change /veh C5orf56 (11738089_at) / RFU CYB561 (11721691_x_at) / Fold change /veh CYB561 (11721691_x_at) / RFU ANKRD19P (11752326_a_at) / Fold change /veh ANKRD19P (11752326_a_at) / RFU OR2T12 /// OR2T33 /// OR2T8 (11738714_s_at) / Fold change /veh OR2T12 /// OR2T33 /// OR2T8 (11738714_s_at) / RFU VCAN (11748164_a_at) / Fold change /veh VCAN (11748164_a_at) / RFU JSRP1 (11732532_at) / Fold change /veh JSRP1 (11732532_at) / RFU KRTAP10-11 (11738290_x_at) / Fold change /veh KRTAP10-11 (11738290_x_at) / RFU MYO3A (11730013_a_at) / Fold change /veh MYO3A (11730013_a_at) / RFU EBF3 (11725865_a_at) / Fold change /veh EBF3 (11725865_a_at) / RFU CAMK2N1 (11719241_x_at) / Fold change /veh CAMK2N1 (11719241_x_at) / RFU C5orf56 (11738088_a_at) / Fold change /veh C5orf56 (11738088_a_at) / RFU OLFML3 (11715873_a_at) / Fold change /veh OLFML3 (11715873_a_at) / RFU LOC100653217 /// NTM (11731650_a_at) / Fold change /veh LOC100653217 /// NTM (11731650_a_at) / RFU MAPK11 (11762145_a_at) / Fold change /veh MAPK11 (11762145_a_at) / RFU FIZ1 (11724087_x_at) / Fold change /veh FIZ1 (11724087_x_at) / RFU OASL (11726364_x_at) / Fold change /veh OASL (11726364_x_at) / RFU SOX15 (11748057_x_at) / Fold change /veh SOX15 (11748057_x_at) / RFU CD79A (11719716_a_at) / Fold change /veh CD79A (11719716_a_at) / RFU HIST1H1D (11736915_at) / Fold change /veh HIST1H1D (11736915_at) / RFU CASKIN2 (11723855_a_at) / Fold change /veh CASKIN2 (11723855_a_at) / RFU LOC730098 (11760151_x_at) / Fold change /veh LOC730098 (11760151_x_at) / RFU OR4N2 (11742367_at) / Fold change /veh OR4N2 (11742367_at) / RFU PRRT2 (11749266_a_at) / Fold change /veh PRRT2 (11749266_a_at) / RFU SNX32 (11753110_a_at) / Fold change /veh SNX32 (11753110_a_at) / RFU CDHR5 (11726645_a_at) / Fold change /veh CDHR5 (11726645_a_at) / RFU RCAN1 (11760418_a_at) / Fold change /veh RCAN1 (11760418_a_at) / RFU FAM167A (11723789_a_at) / Fold change /veh FAM167A (11723789_a_at) / RFU FAM26E (11764081_at) / Fold change /veh FAM26E (11764081_at) / RFU ISYNA1 (11749810_s_at) / Fold change /veh ISYNA1 (11749810_s_at) / RFU ACY1 (11761880_at) / Fold change /veh ACY1 (11761880_at) / RFU 11764098_at / Fold change /veh 11764098_at / RFU SAMD14 (11745864_x_at) / Fold change /veh SAMD14 (11745864_x_at) / RFU NPB (11741838_a_at) / Fold change /veh NPB (11741838_a_at) / RFU TMPRSS6 (11731388_a_at) / Fold change /veh TMPRSS6 (11731388_a_at) / RFU KRTAP10-2 (11738614_at) / Fold change /veh KRTAP10-2 (11738614_at) / RFU ARHGAP8 /// PRR5-ARHGAP8 (11727945_x_at) / Fold change /veh ARHGAP8 /// PRR5-ARHGAP8 (11727945_x_at) / RFU KRTAP5-7 /// NADSYN1 (11734609_at) / Fold change /veh KRTAP5-7 /// NADSYN1 (11734609_at) / RFU RASL12 (11751679_a_at) / Fold change /veh RASL12 (11751679_a_at) / RFU CDKN2B (11736163_a_at) / Fold change /veh CDKN2B (11736163_a_at) / RFU PRF1 (11729649_at) / Fold change /veh PRF1 (11729649_at) / RFU, ZNF638 /// ZNF638-IT1 / Fold change vs veh, ZNF638 /// ZNF638-IT1 / RFU, PANK3 / Fold change vs veh, PANK3 / RFU, SH3YL1 / Fold change vs veh, SH3YL1 / RFU, ZEB2 / Fold change vs veh, ZEB2 / RFU, NRIP1 / Fold change vs veh, NRIP1 / RFU, PTTG1IP / Fold change vs veh, PTTG1IP / RFU, CAPN2 / Fold change vs veh, CAPN2 / RFU, MED14 / Fold change vs veh, MED14 / RFU, SNORA58 / Fold change vs veh, SNORA58 / RFU, C1orf63 / Fold change vs veh, C1orf63 / RFU, LRRFIP1 / Fold change vs veh, LRRFIP1 / RFU, NDUFAF7 / Fold change vs veh, NDUFAF7 / RFU, SLC12A2 / Fold change vs veh, SLC12A2 / RFU, IBTK / Fold change vs veh, IBTK / RFU, ESF1 / Fold change vs veh, ESF1 / Fold change vs veh, TMEM50B / RFU, TAOK1 / Fold change vs veh, TAOK1 / RFU, ACBD3 / Fold change vs veh, ACBD3 / RFU, TMA16 / Fold change vs veh, TMA16 / RFU, RWDD3 / Fold change vs veh, RWDD3 / RFU, BCAT1 / Fold change vs veh, BCAT1 / RFU, EDEM3 / Fold change vs veh, EDEM3 / RFU, TMEM33 / Fold change vs veh, TMEM33 / RFU, WDR75 / Fold change vs veh, WDR75 / RFU, AHCTF1 / Fold change vs veh, AHCTF1 / RFU, TFRC / Fold change vs veh, TFRC / RFU, ZDHHC17 / Fold change vs veh, ZDHHC17 / RFU, NOM1 / Fold change vs veh, NOM1 / RFU, ARL8B / Fold change vs veh, ARL8B / RFU, ZBTB11 / Fold change vs veh, ZBTB11 / RFU, TAMM41 / Fold change vs veh, TAMM41 / RFU, KIAA1704 /// LOC100996395 / Fold change vs veh, KIAA1704 /// LOC100996395 / RFU, ING1 / Fold change vs veh, ING1 / RFU, TRMT61B / Fold change vs veh, TRMT61B / RFU, FUBP3 / Fold change vs veh, FUBP3 / RFU, TP53 / Fold change vs veh, TP53 / RFU, TNKS2 / Fold change vs veh, TNKS2 / RFU, ZFP14 / Fold change vs veh, ZFP14 / RFU, ACTR2 / Fold change vs veh, ACTR2 / RFU, PPP3R1 / Fold change vs veh, PPP3R1 / RFU, PIK3R1 / Fold change vs veh, PIK3R1 / RFU, HNRNPA1 / Fold change vs veh, HNRNPA1 / RFU, RNF170 / Fold change vs veh, RNF170 / RFU, ZNF28 / Fold change vs veh, ZNF28 / RFU, RNGTT / Fold change vs veh, RNGTT / RFU, OGT / Fold change vs veh, OGT / RFU, BRD1 / Fold change vs veh, BRD1 / RFU, MARS / Fold change vs veh, MARS / RFU, ZNF655 / Fold change vs veh, ZNF655 / RFU, FAHD1 / Fold change vs veh, FAHD1 / RFU, BDP1 / Fold change vs veh, BDP1 / RFU, LRRCC1 / Fold change vs veh, LRRCC1 / RFU, ARID1A / Fold change vs veh, ARID1A / RFU, ZNF146 / Fold change vs veh, ZNF146 / RFU, ZNF330 / Fold change vs veh, ZNF330 / RFU, GPN3 / Fold change vs veh, GPN3 / RFU, C9orf123 / Fold change vs veh, C9orf123 / RFU, N4BP2L2 / Fold change vs veh, N4BP2L2 / RFU, ARFIP1 / Fold change vs veh, ARFIP1 / RFU, FAM179B / Fold change vs veh, FAM179B / RFU, BCL10 / Fold change vs veh, BCL10 / RFU, UHRF1BP1L / Fold change vs veh, UHRF1BP1L / RFU, BET1 / Fold change vs veh, BET1 / RFU, CNOT2 / Fold change vs veh, CNOT2 / RFU, ZNF268 / Fold change vs veh, ZNF268 / Fold change vs veh, ZNF507 / RFU, DGCR2 / Fold change vs veh, DGCR2 / RFU, WDSUB1 / Fold change vs veh, WDSUB1 / Fold change vs veh, HSP90B1 /// MIR3652 / RFU, ADSS / Fold change vs veh, ADSS / RFU, GK / Fold change vs veh, GK / RFU, ZNF148 / Fold change vs veh, ZNF148 / RFU, TAF9 / Fold change vs veh, TAF9 / RFU, SLC1A5 / Fold change vs veh, SLC1A5 / RFU, SLMO2 / Fold change vs veh, SLMO2 / RFU, ABCC4 / Fold change vs veh, ABCC4 / RFU, LOC101060439 /// RAP1B / Fold change vs veh, LOC101060439 /// RAP1B / RFU, RFX7 / Fold change vs veh, RFX7 / RFU, GTPBP10 / Fold change vs veh, GTPBP10 / RFU, CNEP1R1 / Fold change vs veh, CNEP1R1 / RFU, BIVM-ERCC5 /// ERCC5 / Fold change vs veh, BIVM-ERCC5 /// ERCC5 / RFU, ILF3 / Fold change vs veh, ILF3 / RFU 11762660_at / Fold change /veh 11762660_at / RFU VCAN (11757783_s_at) / Fold change /veh VCAN (11757783_s_at) / RFU DDX43 (11728927_at) / Fold change /veh DDX43 (11728927_at) / RFU KRT8 (11758188_x_at) / Fold change /veh KRT8 (11758188_x_at) / RFU NKD1 (11759106_at) / Fold change /veh NKD1 (11759106_at) / RFU SRD5A1 (11742802_a_at) / Fold change /veh SRD5A1 (11742802_a_at) / RFU TPSAB1 /// TPSB2 (11721975_s_at) / Fold change /veh TPSAB1 /// TPSB2 (11721975_s_at) / RFU GSTM3 (11746129_a_at) / Fold change /veh GSTM3 (11746129_a_at) / RFU IL23R (11737362_x_at) / Fold change /veh IL23R (11737362_x_at) / RFU TMEM51 (11727254_a_at) / Fold change /veh TMEM51 (11727254_a_at) / RFU PIWIL2 (11732686_x_at) / Fold change /veh PIWIL2 (11732686_x_at) / RFU ORM1 (11744905_x_at) / Fold change /veh ORM1 (11744905_x_at) / RFU CCDC152 (11743942_at) / Fold change /veh CCDC152 (11743942_at) / RFU ECM1 (11717891_a_at) / Fold change /veh ECM1 (11717891_a_at) / RFU IL23R (11748794_a_at) / Fold change /veh IL23R (11748794_a_at) / RFU TNFAIP8L3 (11732012_x_at) / Fold change /veh TNFAIP8L3 (11732012_x_at) / RFU MBOAT4 (11741988_at) / Fold change /veh MBOAT4 (11741988_at) / RFU 11764193_at / Fold change /veh 11764193_at / RFU TMEM53 (11763286_at) / Fold change /veh TMEM53 (11763286_at) / RFU MAGEB2 (11727129_at) / Fold change /veh MAGEB2 (11727129_at) / RFU TMEM200A (11744735_a_at) / Fold change /veh TMEM200A (11744735_a_at) / RFU CCDC152 (11751479_a_at) / Fold change /veh CCDC152 (11751479_a_at) / RFU FAM211A (11726209_a_at) / Fold change /veh FAM211A (11726209_a_at) / RFU RGS16 (11746705_a_at) / Fold change /veh RGS16 (11746705_a_at) / RFU VCAN (11755009_s_at) / Fold change /veh VCAN (11755009_s_at) / RFU RHOB (11743442_s_at) / Fold change /veh RHOB (11743442_s_at) / RFU RGS16 (11720943_a_at) / Fold change /veh RGS16 (11720943_a_at) / RFU RGS16 (11720944_at) / Fold change /veh RGS16 (11720944_at) / RFU, VPS4B / Fold change vs veh, VPS4B / RFU, CREB1 / Fold change vs veh, CREB1 / RFU, DNAJC13 / Fold change vs veh, DNAJC13 / RFU, GNAQ / Fold change vs veh, GNAQ / RFU, CDK5R1 / Fold change vs veh, CDK5R1 / RFU, ZRANB3 / Fold change vs veh, ZRANB3 / RFU, CUL4A / Fold change vs veh, CUL4A / RFU, CCNY / Fold change vs veh, CCNY / RFU, UFL1 / Fold change vs veh, UFL1 / RFU, COG3 / Fold change vs veh, COG3 / RFU, DIAPH2 / Fold change vs veh, DIAPH2 / RFU, SKA2 / Fold change vs veh, SKA2 / RFU, AFF3 / Fold change vs veh, AFF3 / RFU, LMF1 / Fold change vs veh, LMF1 / RFU, IPO11 / Fold change vs veh, IPO11 / RFU, DFFB / Fold change vs veh, DFFB / RFU, FOXP1 / Fold change vs veh, FOXP1 / RFU, CARD8 / Fold change vs veh, CARD8 / RFU, STRN3 / Fold change vs veh, STRN3 / RFU, ADK / Fold change vs veh, ADK / RFU, RASSF2 / Fold change vs veh, RASSF2 / RFU, WIPF1 / Fold change vs veh, WIPF1 / RFU, LARP1B / Fold change vs veh, LARP1B / RFU, RASA1 / Fold change vs veh, RASA1 / RFU, RB1 / Fold change vs veh, RB1 / RFU, PPFIA1 / Fold change vs veh, PPFIA1 / RFU, MAT2A / Fold change vs veh, MAT2A / RFU, CCT5 / Fold change vs veh, CCT5 / RFU, WDR92 / Fold change vs veh, WDR92 / RFU, CUX1 / Fold change vs veh, CUX1 / RFU, TTC7A / Fold change vs veh, TTC7A / RFU, TMEM135 / Fold change vs veh, TMEM135 / RFU, DEPTOR / Fold change vs veh, DEPTOR / RFU, CPM / Fold change vs veh, CPM / RFU, DNAJB6 / Fold change vs veh, DNAJB6 / RFU, CACNA2D3 / Fold change vs veh, CACNA2D3 / RFU, DTX4 / Fold change vs veh, DTX4 / RFU, TFCP2 / Fold change vs veh, TFCP2 / RFU, GMCL1 /// GMCL1P1 / Fold change vs veh, GMCL1 /// GMCL1P1 / RFU, AEBP2 / Fold change vs veh, AEBP2 / RFU, SNHG1 /// SNORD22 /// SNORD25 /// SNORD26 /// SNORD27 /// SNORD28 /// SNORD29 /// SNORD31 / Fold change vs veh, SNHG1 /// SNORD22 /// SNORD25 /// SNORD26 /// SNORD27 /// SNORD28 /// SNORD29 /// SNORD31 / Fold change (Aza/veh), C12orf56 (ProbeSet 11735607_a_at) / Fold change (ACY-1035/veh), C12orf56 (ProbeSet 11735607_a_at) / Fold change (Aza/veh), FGFR1OP (ProbeSet 11751329_s_at) / Fold change (ACY-1035/veh), FGFR1OP (ProbeSet 11751329_s_at) / Fold change (Aza/veh), VPS36 (ProbeSet 11739960_a_at) / Fold change (ACY-1035/veh), VPS36 (ProbeSet 11739960_a_at) / RFU SYPL1 (11715823_x_at) / Fold change /veh SYPL1 (11715823_x_at) / RFU IGFBP7 (11715501_s_at) / Fold change /veh IGFBP7 (11715501_s_at) / RFU REEP3 (11722064_at) / Fold change /veh REEP3 (11722064_at) / RFU IGLL1 (11728026_x_at) / Fold change /veh IGLL1 (11728026_x_at): dose or concentration left out as unconfirmed
Conditions: MV-4-11 cells, 48 hours

Nc1ncn([C@@H]2O[C@H](CO)[C@@H](O)[C@H]2O)c(=O)n1 [azacitidine]
Fold change /veh LRRC4B (11730491_at): 1.07
